The subject of assay [1] is Micrococcus luteus. Briefly: Antimicrobial activity against Micrococcus luteus MTCC 2470 after 24 hrs by well diffusion method. The assay is classed as functional. As to conditions: MTCC 2470, 24 h. (A growth-free zone around the sample is the usual read-out of agar diffusion tests.)
For assay [2], the system named is Staphylococcus aureus. As to the kind of experiment: Antimicrobial activity against Staphylococcus aureus MLS-16 MTCC 2940 after 24 hrs by well diffusion method. It counts as functional. As to conditions: MLS-16 MTCC 2940, 24 h.
Assay [3] relates to Bacillus subtilis. Briefly: Antimicrobial activity against Bacillus subtilis MTCC 121 after 24 hrs by well diffusion method. The assay is classed as functional. As to conditions: MTCC 121, 24 h.
Assay [4] has as its system Escherichia coli. Briefly: Antimicrobial activity against Escherichia coli MTCC 739 after 24 hrs by well diffusion method. It counts as functional. As to conditions: MTCC 739, 24 h.
The subject of assay [5] is Pseudomonas aeruginosa. Briefly: Antimicrobial activity against Pseudomonas aeruginosa MTCC 2453 after 24 hrs by well diffusion method. The assay is classed as functional. To be noted: MTCC 2453, 24 h.
Assay [6] relates to Raoultella planticola. As to the kind of experiment: Antimicrobial activity against Klebsiella planticola MTCC 530 after 24 hrs by well diffusion method. The assay is classed as functional. To be noted: MTCC 530, 24 h.
For assay [7], the system named is Candida albicans. As to the kind of experiment: Antimicrobial activity against Candida albicans MTCC 3017 after 24 hrs by well diffusion method. It counts as functional, organism-based.
Assay [8] concerns Staphylococcus aureus. Briefly: Bactericidal activity against Staphylococcus aureus MLS-16 MTCC 2940 after 24 hrs by Mueller Hinton agar plate assay. It counts as functional. As to conditions: MLS-16, 24 h.
The test system of assay [9] is Bacillus subtilis. As to the kind of experiment: Bactericidal activity against Bacillus subtilis MTCC 121 after 24 hrs by Mueller Hinton agar plate assay. It counts as functional. As to conditions: MTCC 121, 24 h.
Assay [10] concerns Escherichia coli. Briefly: Bactericidal activity against Escherichia coli MTCC 739 after 24 hrs by Mueller Hinton agar plate assay. It counts as functional. As to conditions: MTCC 739, 24 h.
Assay [11] has as its system Staphylococcus aureus. Briefly: Antimicrobial activity against Staphylococcus aureus MLS-16 MTCC 2940 assessed as inhibition of biofilm formation after 24 hrs. The assay is classed as functional, organism-based. To be noted: MLS-16, 24 h.
Assay [12] has as its system Bacillus subtilis. As to the kind of experiment: Antimicrobial activity against Bacillus subtilis MTCC 121 assessed as inhibition of biofilm formation after 24 hrs. The assay is classed as functional, organism-based. To be noted: MTCC 121, 24 h.
For assay [13], the system named is Escherichia coli. As to the kind of experiment: Antimicrobial activity against Escherichia coli MTCC 739 assessed as inhibition of biofilm formation after 24 hrs. It counts as functional, organism-based. To be noted: MTCC 739, 24 h.

Values after ≈ are worked out from the molar mass of the structure shown. Active and inactive are the calls of the source. Where only a bound is given, the exact number is not on record here.

In the case of `Cc1ccc(C2=CC(c3oc(CO)cc(=O)c3O)c3ccccc3O2)cc1` (configuration not stated), the MIC (usually the smallest concentration in the dilution series that meets the test's criterion for growth inhibition) was above 125 µg/mL in assay [1]; 15.6 µg/mL (≈ 43 µM) in assay [2]; 15.6 µg/mL (≈ 43 µM) in assay [3]; 7.8 µg/mL (≈ 21.5 µM) in [4]; above 125 µg/mL in assay [5]; above 125 µg/mL in assay [6]. Also, in assay [7], the MIC entry is “inactive”. In addition, the MBC – broadly, the lowest tested concentration that kills the bacteria rather than only halting them – in assay [8] came to 31.2 µg/mL (≈ 86.1 µM); in assay [9], 31.2 µg/mL (≈ 86.1 µM); in assay [10], 15.6 µg/mL (≈ 43 µM). The IC50 (usually the concentration at which inhibition is half-maximal) came out at 18.6 µg/mL (≈ 51.3 µM) in [11], 20.1 µg/mL (≈ 55.5 µM) in assay [12] and 9.1 µg/mL (≈ 25.1 µM) in assay [13].

Consider `O=c1cc(CO)oc(C2C=C(c3ccccc3Br)Oc3ccccc32)c1O` (configuration not stated), for which the MIC in assay [1], in assay [2], in assay [3], in assay [4], in assay [5] and in assay [6] was above 125 µg/mL throughout. Further, in [7], the MIC entry was “inactive”.

`CCC1=CC(c2oc(CO)cc(=O)c2O)c2ccccc2O1` (configuration not stated): the MIC in [1], in assay [2], in [3], in [4], in assay [5] and in [6] was above 125 µg/mL each time. Besides, in assay [7], the MIC entry is “inactive”.

For `O=c1cc(CO)oc(C2C=C(c3ccc4ccccc4c3)Oc3ccccc32)c1O` (configuration not stated), the MIC in assay [1], in [2], in [3], in assay [4], in assay [5] and in [6] was above 125 µg/mL each time. The MIC result in assay [7] is “inactive”.

`O=c1cc(CO)oc(C2C=C(c3ccccc3)Oc3ccc(Cl)cc32)c1O` (configuration not stated): the MIC in assay [1], in [2], in assay [3], in assay [4], in assay [5] and in [6] was above 125 µg/mL in each case. In assay [7], the MIC entry was “inactive”.

Regarding `O=C(O)c1cn(C2CC2)c2cc(N3CCNCC3)c(F)cc2c1=O` [CIPROFLOXACIN], the MIC in assay [1], in [2], in assay [3], in assay [4], in assay [5] and in [6] was 0.9 µg/mL (≈ 2.72 µM) throughout. Further, the MIC entry in assay [7] was “inactive”. The figures for the MBC in assay [8], in assay [9] and in assay [10] were 1.9 µg/mL (≈ 5.73 µM), 0.9 µg/mL (≈ 2.72 µM) and 1.9 µg/mL (≈ 5.73 µM), respectively.

Consider `CC1=CC(c2oc(CO)cc(=O)c2O)c2ccccc2O1` (configuration not stated), for which the minimum inhibitory concentration (MIC) in assay [1], in assay [2], in [3], in assay [4], in [5] and in assay [6] was above 125 µg/mL throughout. The MIC entry in assay [7] is “inactive”.

In the case of `COc1ccc(C2=CC(c3oc(CO)cc(=O)c3O)c3ccccc3O2)cc1` (configuration not stated), the MIC in assay [1] was above 125 µg/mL; in assay [2], 15.6 µg/mL (≈ 41.2 µM); in [3] it was 7.8 µg/mL (≈ 20.6 µM); in assay [4], 7.8 µg/mL (≈ 20.6 µM); in [5], above 125 µg/mL; in assay [6] it was above 125 µg/mL. The MIC result in assay [7] was “inactive”. Moreover, the MBC in assay [8] is 31.2 µg/mL (≈ 82.5 µM); in assay [9], 15.6 µg/mL (≈ 41.2 µM); in assay [10], 7.8 µg/mL (≈ 20.6 µM). The figures for the IC50 in assay [11], in [12] and in assay [13] were 15.4 µg/mL (≈ 40.7 µM), 10.2 µg/mL (≈ 27 µM) and 6.1 µg/mL (≈ 16.1 µM), respectively.

Take `CC[C@H]1OC(=O)[C@H](C)[C@@H](O[C@H]2C[C@@](C)(OC)[C@@H](O)[C@H](C)O2)[C@H](C)[C@@H](O[C@@H]2O[C@H](C)C[C@H](N(C)C)[C@H]2O)[C@](C)(O)C[C@@H](C)C(=O)[C@H](C)[C@@H](O)[C@]1(C)O` [ERYTHROMYCIN]: the IC50 was 0.23 µg/mL (≈ 0.313 µM) in [11], 0.19 µg/mL (≈ 0.259 µM) in [12] and 0.31 µg/mL (≈ 0.422 µM) in assay [13].

As for `O=c1cc(CO)oc(C2C=C(c3ccc4c(c3)OCO4)Oc3ccccc32)c1O` (configuration not stated), the minimum inhibitory concentration (MIC) in [1] was above 125 µg/mL; in [2] it was above 125 µg/mL; in [3], 7.8 µg/mL (≈ 19.9 µM); in [4], 15.6 µg/mL (≈ 39.8 µM); in assay [5], above 125 µg/mL; in assay [6] it was above 125 µg/mL. The MIC entry in [7] was “inactive”. For the same molecule, the figures for the MBC in assay [8], in [9] and in assay [10] were above 125 µg/mL, 15.6 µg/mL (≈ 39.8 µM) and 31.2 µg/mL (≈ 79.5 µM), respectively. Also, the half-maximal inhibitory concentration (IC50) in assay [11] is above 125 µg/mL; in [12] it was 8.1 µg/mL (≈ 20.6 µM); in assay [13] it was 17.8 µg/mL (≈ 45.4 µM).

Turning to `O=c1cc(CO)oc(C2C=C(c3cccc(O)c3)Oc3ccccc32)c1O` (configuration not stated), the minimum inhibitory concentration (MIC) in assay [1], in [2], in assay [3], in assay [4], in assay [5] and in assay [6] was above 125 µg/mL throughout. For the same molecule, the MIC result in assay [7] was “inactive”.

In the case of `O=c1cc(CO)oc(C2C=C(c3cc(F)cc(F)c3)Oc3ccccc32)c1O` (configuration not stated), the MIC in assay [1], in assay [2], in assay [3], in assay [4], in assay [5] and in assay [6] was above 125 µg/mL each time. For the same molecule, the MIC entry in assay [7] was “inactive”.

For `O=c1cc(CO)oc(C2C=C(c3ccc(Cl)cc3)Oc3ccccc32)c1O` (configuration not stated), the MIC is above 125 µg/mL in assay [1]; 15.6 µg/mL (≈ 40.8 µM) in assay [2]; 7.8 µg/mL (≈ 20.4 µM) in assay [3]; above 125 µg/mL in assay [4]; above 125 µg/mL in [5]; above 125 µg/mL in assay [6]. The MIC entry in [7] is “inactive”. For the same molecule, the MBC in assay [8] is 15.6 µg/mL (≈ 40.8 µM); in [9] it was 7.8 µg/mL (≈ 20.4 µM); in assay [10] it was above 125 µg/mL. The IC50 in assay [11] was 9.1 µg/mL (≈ 23.8 µM); in assay [12], 3.6 µg/mL (≈ 9.4 µM); in assay [13], above 125 µg/mL.

With `O=c1cc(CO)oc(C2C=C(c3ccccc3)Oc3c(Cl)cc(Br)cc32)c1O` (configuration not stated), the MIC in [1], in [2], in [3], in assay [4], in [5] and in assay [6] was above 125 µg/mL in each case. Further, in [7], the MIC result is “inactive”.

In the case of `O=c1cc(CO)oc(C2C=C(c3ccccc3)Oc3ccc(Br)cc32)c1O` (configuration not stated), the MIC in [1], in assay [2], in assay [3], in assay [4], in assay [5] and in assay [6] was above 125 µg/mL in each case. The MIC result in assay [7] was “inactive”.

For the molecule `CC(C)CC1=CC(c2oc(CO)cc(=O)c2O)c2ccccc2O1` (configuration not stated), the MIC in assay [1] was above 125 µg/mL; in assay [2], 7.8 µg/mL (≈ 23.8 µM); in [3], 7.8 µg/mL (≈ 23.8 µM); in assay [4] it was above 125 µg/mL; in assay [5], above 125 µg/mL; in assay [6], above 125 µg/mL. Further, the MIC entry in [7] was “inactive”. For the same molecule, the MBC in assay [8] is 15.6 µg/mL (≈ 47.5 µM); in assay [9], 15.6 µg/mL (≈ 47.5 µM); in assay [10], above 125 µg/mL. Further, the figures for the IC50 in assay [11], in [12] and in assay [13] were 9.2 µg/mL (≈ 28 µM), 11.3 µg/mL (≈ 34.4 µM) and above 125 µg/mL, respectively.

As to `O=c1cc(CO)oc(C2C=C(c3ccccc3)Oc3ccccc32)c1O` (configuration not stated), the minimum inhibitory concentration (MIC) was above 125 µg/mL in assay [1]; 7.8 µg/mL (≈ 22.4 µM) in [2]; 3.9 µg/mL (≈ 11.2 µM) in [3]; 7.8 µg/mL (≈ 22.4 µM) in [4]; above 125 µg/mL in [5]; above 125 µg/mL in [6]. Further, the MIC result in assay [7] is “inactive”. The minimal bactericidal concentration (MBC) was 15.6 µg/mL (≈ 44.8 µM) in [8], 7.8 µg/mL (≈ 22.4 µM) in assay [9] and 7.8 µg/mL (≈ 22.4 µM) in assay [10]. For the same molecule, the concentration for half-maximal inhibition (IC50) turned out to be 8.3 µg/mL (≈ 23.8 µM) in assay [11], 3.4 µg/mL (≈ 9.76 µM) in assay [12] and 5.2 µg/mL (≈ 14.9 µM) in [13].

As to `O=c1cc(CO)oc(C2C=C(c3cccs3)Oc3ccccc32)c1O` (configuration not stated), the MIC was above 125 µg/mL in assay [1]; 7.8 µg/mL (≈ 22 µM) in assay [2]; 7.8 µg/mL (≈ 22 µM) in assay [3]; 15.6 µg/mL (≈ 44 µM) in [4]; above 125 µg/mL in [5]; above 125 µg/mL in [6]. Besides, the MIC result in [7] is “inactive”. Moreover, the MBC was 15.6 µg/mL (≈ 44 µM) in assay [8], 7.8 µg/mL (≈ 22 µM) in assay [9] and 31.2 µg/mL (≈ 88 µM) in [10]. Further, the values for the IC50 in assay [11], in assay [12] and in assay [13] were 8.8 µg/mL (≈ 24.8 µM), 4.6 µg/mL (≈ 13 µM) and 18.2 µg/mL (≈ 51.4 µM), respectively.

(Values after ChEMBL document CHEMBL3400018, “One-pot catalyst free synthesis of novel kojic acid tagged 2-aryl/alkyl substituted-4H-chromenes and evaluation of their antimicrobial and anti-biofilm activities” (Bioorg Med Chem Lett, 2015).)
